Test system: 966289-007-R4-J1-PDC complex spheroid viability
Experiment: Anticancer human tumor 966289-007-R4-J1-PDC patient-derived pancreatic adenocarcinoma cell line growth inhibition [GQUAD]
Conditions: for IC50: curve of first compound; for viability, T/C: stronger effect = lower value
Excerpt: DNA G-quadruplex Stabilizer Agents in Combinations in Complex Spheroids
A high-throughput screen of multi-cell type tumor spheroids was designed to identify active combinations of DNA G-quadruplex stabilizer agents and targeted small molecules. Complex spheroids include a stromal component modeled by human endothelial cells (HUVEC) and fibroblasts modeled by human mesenchymal stem cells (MSCs). The concentration ranges selected for each drug and investigational agent were based upon clinically achievable concentrations if the clinical Cmax of the agent was known.
Compounds. The drugs and investigational agents: pidnarulex (CX-5461; NSC782164), APTO-253 (NSC789042), BRACO-19 (NSC847499), peposertib (NSC802822), ceralasertib (NSC780249), elimusertib (NSC800525), camonsertib (NSC841442), AZD-1390 (NSC803789), olaparib (NSC753686), talazoparib (NSC767125), ART-558 (NSC835418), sotorasib (NSC818433), MRTX-1133 (NSC836407), SN-38 (NSC673596), topotecan (NSC609699), etoposide (NSC141540), doxorubicin (NSC123127), gemcitabine (NSC613327), 5-fluorouracil (NSC19893), paclitaxel (NSC125973), vemurafenib (NSC761431), panobinostat (NSC761190), R-306465 (JNJ-16241199; NSC773264), adavosertib (NSC754352), TP-3654 (NSC805149), carboplatin (NSC241240), KSQ-4279 (NSC840948), and staurosporine (NSC755774) were obtained from the National Cancer Institute (NCI) Developmental Therapeutics Program Chemical Repository (34). The FDA-approved anticancer drug set is available from the NCI Developmental Therapeutics Program. […] The stock solutions were prepared in dimethyl sulfoxide (DMSO, Sigma-Aldrich, St. Louis, MO, cat. D2650) at 800-fold the tested concentration and stored at -70 degrees C prior to their use. All drugs and investigational agents were tested over a range starting from a high concentration at or near the clinical Cmax and decreasing in half-log increments. If the clinical Cmax for an agent had not been determined, the highest concentration tested was 10 microM.
2.3 Cell Culture. All cells were maintained in an incubator at 37 degrees C and 5% CO2 with 95% humidity. The PDC lines were cultured according to standard operating procedures established by the NCI PDMR. All PDCs were thawed and cultured in Matrigel-coated flasks prepared with a working solution of 1X Ham's F-12 nutrient mix, without supplementation (Invitrogen, cat. 11765054), 100 U/mL penicillin-streptomycin (Invitrogen, cat. 15140122), and 2.5% Matrigel (Corning Inc., cat. 354248) for the first three passages. The 857933-349-R-J2-PDC line was cultured in 6C/Colon 1B media, which includes advanced DMEM/F-12 (Thermo Fisher Scientific, cat. 12634028), 10 mM HEPES (Thermo Fisher Scientific, cat. 15630080), 1X GlutaMAX supplement (Thermo Fisher Scientific, cat. 35050061), 0.1 mg/mL primocin (InvivoGen, cat. ant-pm-2), 10% defined fetal bovine serum, heat inactivated (HyClone Laboratories Inc., cat. SH30070.03HI), 50% L-WRN conditioned media (ATCC, cat. CRL-3276), 1.25 mM N-Acetyl-L-cysteine (Sigma-Aldrich, cat. A9165), 10 mM nicotinamide (Sigma-Aldrich, cat. N0636), 1X B-27 supplement (Thermo Fisher Scientific, cat. 17504044), 1X N-2 supplement (Thermo Fisher Scientific, cat. 17502048), 10 microM Y-27632 dihydrochloride (Tocris Bioscience, cat. 1254), and 50 ng/mL human EGF recombinant protein (Thermo Fisher Scientific, cat. PHG0311). The 485176-168-R4-J1-PDC line was cultured in Panc media, which includes all 6C/Colon 1B media components plus 100 ng/mL human FGF-10 (Thermo Fisher Scientific, cat. 100-26), 500 nM SB-431542 (Selleckchem, cat. S1067), and gastrin (Tocris, cat. 3006).
[…]
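Further: spheroids exposed to the agents for seven days before readout.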
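Wherever viability, T/C is given: percent viability relative to DMSO vehicle control wells taken as 100%.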

Compound `CC1COCCN1c1cc(C2(S(C)(=N)=O)CC2)nc(-c2ccnc3[nH]ccc23)n1` (configuration not stated) + Cc1[nH]c2ccc(F)cc2c1-c1nc2c3cccnc3c3ncccc3c2[nH]1 has an IC50 (second compound 0.0316 µM) of 2.5 µM, an IC50 (second compound 0.1 µM) of 3.03 µM and an IC50 (second compound 0.316 µM) of 3.13 µM. The IC50 (second compound 1 µM) was 2.87 µM, the IC50 (second compound 3.16 µM) was 1.75 µM and the IC50 (second compound 10 µM) was 1.45 µM. The viability, T/C (second compound 0.0316 µM, first compound 0.0316 µM) was 104%, the viability, T/C (second compound 0.0316 µM, first compound 0.1 µM) was 91.8% and the viability, T/C (second compound 0.0316 µM, first compound 0.316 µM) was 109%. It also gave a viability, T/C (second compound 0.0316 µM, first compound 1 µM) of 90.9%, a viability, T/C (second compound 0.0316 µM, first compound 3.16 µM) of 39.4% and a viability, T/C (second compound 0.0316 µM, first compound 10 µM) of 7.57%. It also gave a viability, T/C (second compound 0.1 µM, first compound 0.0316 µM) of 106%, a viability, T/C (second compound 0.1 µM, first compound 0.1 µM) of 104% and a viability, T/C (second compound 0.1 µM, first compound 0.316 µM) of 105%. For the same compound, the viability, T/C (second compound 0.1 µM, first compound 1 µM) was 96.3%, the viability, T/C (second compound 0.1 µM, first compound 3.16 µM) was 48.2% and the viability, T/C (second compound 0.1 µM, first compound 10 µM) was 8.79%. For the same compound, the viability, T/C (second compound 0.316 µM, first compound 0.0316 µM) was 99.8%, the viability, T/C (second compound 0.316 µM, first compound 0.1 µM) was 100% and the viability, T/C (second compound 0.316 µM, first compound 0.316 µM) was 106%. The viability, T/C (second compound 0.316 µM, first compound 1 µM) was 101%, the viability, T/C (second compound 0.316 µM, first compound 3.16 µM) was 49.6% and the viability, T/C (second compound 0.316 µM, first compound 10 µM) was 6.54%. It also gave a viability, T/C (second compound 1 µM, first compound 0.0316 µM) of 99.2%, a viability, T/C (second compound 1 µM, first compound 0.1 µM) of 103% and a viability, T/C (second compound 1 µM, first compound 0.316 µM) of 108%. The viability, T/C (second compound 1 µM, first compound 1 µM) was 90.6%, the viability, T/C (second compound 1 µM, first compound 3.16 µM) was 46.4% and the viability, T/C (second compound 1 µM, first compound 10 µM) was 7.68%. The viability, T/C (second compound 3.16 µM, first compound 0.0316 µM) was 101%, the viability, T/C (second compound 3.16 µM, first compound 0.1 µM) was 106% and the viability, T/C (second compound 3.16 µM, first compound 0.316 µM) was 107%. The viability, T/C (second compound 3.16 µM, first compound 1 µM) was 77.5%, the viability, T/C (second compound 3.16 µM, first compound 3.16 µM) was 20.6% and the viability, T/C (second compound 3.16 µM, first compound 10 µM) was 5.11%. It also gave a viability, T/C (second compound 10 µM, first compound 0.0316 µM) of 101%, a viability, T/C (second compound 10 µM, first compound 0.1 µM) of 100% and a viability, T/C (second compound 10 µM, first compound 0.316 µM) of 97.7%. For the same compound, the viability, T/C (second compound 10 µM, first compound 1 µM) was 69.1%, the viability, T/C (second compound 10 µM, first compound 3.16 µM) was 9.9% and the viability, T/C (second compound 10 µM, first compound 10 µM) was 3.37%.

Source: PubChem BioAssay AID2060488 (Molecular Pharmacology Branch, DTP, NCI, 2025)
